The source made the active and inactive calls. The rule behind the calls is not given here.

The target in test [1] is 5-hydroxytryptamine receptor 7 (Homo sapiens) (UniProt P34969). In words: 5-HT7 (h) Ligand binding assay. To be noted: Compound concentration 10.0 uM.
Test [2] has as its target Alpha-1D adrenergic receptor (Homo sapiens) (UniProt P25100). As to conditions: Compound concentration 10.0 uM.
Test [3] concerns the target Kappa-type opioid receptor (Homo sapiens) (UniProt P41145). As to the kind of experiment: Kappa (h) Ligand binding assay. To be noted: Compound concentration 10.0 uM.
Test [4] addresses P2Y receptor (Homo sapiens) (UniProt Q9H244+P51582+P47900+P41231+Q15391+Q15077+Q96G91+Q9BPV8). As to the kind of experiment: P2Y Ligand binding assay. The test is classed as protein assay. As to conditions: Compound concentration 10.0 uM.
The target in test [5] is Sigma receptor (Homo sapiens) (UniProt Q99720+Q5BJF2). As to the kind of experiment: Sigma (non selective) Ligand binding assay. The test is classed as protein assay.
Test [6] addresses T1, 5-hydroxytryptamine receptor 2C (Homo sapiens) (UniProt P28335).
T1 sequence (whole entry): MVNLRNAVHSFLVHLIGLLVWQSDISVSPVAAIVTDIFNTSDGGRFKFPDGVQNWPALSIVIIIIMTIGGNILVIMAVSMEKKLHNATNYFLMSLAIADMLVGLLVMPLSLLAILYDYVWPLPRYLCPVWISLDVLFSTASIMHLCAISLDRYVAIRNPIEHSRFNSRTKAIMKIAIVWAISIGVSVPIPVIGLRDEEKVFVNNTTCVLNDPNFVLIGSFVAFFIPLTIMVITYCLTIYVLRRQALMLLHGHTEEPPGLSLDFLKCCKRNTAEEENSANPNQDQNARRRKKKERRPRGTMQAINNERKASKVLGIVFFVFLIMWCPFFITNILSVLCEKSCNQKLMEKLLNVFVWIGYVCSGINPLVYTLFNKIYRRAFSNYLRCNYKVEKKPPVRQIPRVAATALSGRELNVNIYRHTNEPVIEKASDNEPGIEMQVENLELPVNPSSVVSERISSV
As to the kind of experiment: 5-HT2C (h) Ligand binding assay. As to conditions: Compound concentration 10.0 uM.

Test [7] is described as follows: Immunoblot method to monitor prenylation inhibition of Ras. On the set-up: species or system Homo sapiens. A general note: In western blotting, separated proteins are transferred to a membrane and probed.
Test [8] has as its target Pituitary adenylate cyclase-activating polypeptide type I receptor (Homo sapiens) (UniProt P41586). As to the kind of experiment: PACAP[…] (h) Ligand binding assay. As to conditions: Compound concentration 10.0 uM.
The target in test [9] is 5-hydroxytryptamine receptor 2A (Homo sapiens) (UniProt P28223). In words: 5-HT2A (h) Ligand binding assay. As to conditions: Compound concentration 10.0 uM.
The target in test [10] is 5-hydroxytryptamine receptor 1B (Homo sapiens) (UniProt P28222). As to the kind of experiment: 5-HT1B Ligand binding assay. To be noted: Compound concentration 10.0 uM.
Test [11] concerns the target Translocator protein (Rattus norvegicus) (UniProt P16257). As to the kind of experiment: BZD (peripheral) Ligand binding assay. As to conditions: Compound concentration 10.0 uM.
The target in test [12] is T2, 5-hydroxytryptamine receptor 1A (Homo sapiens) (UniProt P08908).
T2 sequence (whole entry): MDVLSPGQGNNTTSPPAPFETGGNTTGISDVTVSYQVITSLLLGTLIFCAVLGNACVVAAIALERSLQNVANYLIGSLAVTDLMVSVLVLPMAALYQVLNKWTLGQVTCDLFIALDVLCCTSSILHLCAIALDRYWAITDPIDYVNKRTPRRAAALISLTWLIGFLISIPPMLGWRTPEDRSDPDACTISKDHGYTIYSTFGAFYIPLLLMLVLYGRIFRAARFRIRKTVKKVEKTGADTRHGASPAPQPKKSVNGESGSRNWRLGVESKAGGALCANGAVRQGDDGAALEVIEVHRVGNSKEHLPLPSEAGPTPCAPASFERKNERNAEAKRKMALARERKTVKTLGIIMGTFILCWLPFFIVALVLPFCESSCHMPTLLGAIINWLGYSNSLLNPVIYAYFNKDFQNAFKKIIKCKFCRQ
As to the kind of experiment: 5-HT1A (h) Ligand binding assay. To be noted: Compound concentration 10.0 uM.

For test [13], the system named is Glutamate receptor ionotropic NMDA, PCP site (Homo sapiens). As to the kind of experiment: PCP Ligand binding assay.
The target of test [14] is Mu-type opioid receptor (Homo sapiens) (UniProt P35372). As to the kind of experiment: Mu (h) Ligand binding assay. As to conditions: Compound concentration 10.0 uM.
The target in test [15] is Adenosine receptor A1 (Homo sapiens) (UniProt P30542). In words: A1 (h) Ligand binding assay. To be noted: Compound concentration 10.0 uM.
Test [16] concerns the target Beta-2 adrenergic receptor (Homo sapiens) (UniProt P07550). As to the kind of experiment: beta2 (h) Ligand binding assay. To be noted: Compound concentration 10.0 uM.
For test [17], the target named is Calcitonin-gene-related peptide receptor, CALCRL/RAMP1 (Homo sapiens) (UniProt O60894+Q16602). In words: CGRP (h) Ligand binding assay. The test is classed as protein-complex assay. As to conditions: Compound concentration 10.0 uM.

Sigma receptor (Homo sapiens), sequence (Q5BJF2 whole entry, looked up): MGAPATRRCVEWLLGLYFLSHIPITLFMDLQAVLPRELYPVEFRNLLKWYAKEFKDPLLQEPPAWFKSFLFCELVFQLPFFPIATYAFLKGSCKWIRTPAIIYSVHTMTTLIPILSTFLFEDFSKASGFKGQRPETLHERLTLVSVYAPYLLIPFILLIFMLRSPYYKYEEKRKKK
Sigma receptor (Homo sapiens), sequence (Q99720 whole entry, looked up): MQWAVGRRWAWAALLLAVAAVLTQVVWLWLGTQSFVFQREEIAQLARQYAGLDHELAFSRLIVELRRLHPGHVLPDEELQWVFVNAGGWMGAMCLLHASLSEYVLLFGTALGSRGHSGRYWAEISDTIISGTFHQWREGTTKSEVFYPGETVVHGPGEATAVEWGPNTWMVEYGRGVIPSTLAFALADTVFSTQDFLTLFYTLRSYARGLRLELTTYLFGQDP
Alpha-1D adrenergic receptor (Homo sapiens), sequence (P25100 whole entry): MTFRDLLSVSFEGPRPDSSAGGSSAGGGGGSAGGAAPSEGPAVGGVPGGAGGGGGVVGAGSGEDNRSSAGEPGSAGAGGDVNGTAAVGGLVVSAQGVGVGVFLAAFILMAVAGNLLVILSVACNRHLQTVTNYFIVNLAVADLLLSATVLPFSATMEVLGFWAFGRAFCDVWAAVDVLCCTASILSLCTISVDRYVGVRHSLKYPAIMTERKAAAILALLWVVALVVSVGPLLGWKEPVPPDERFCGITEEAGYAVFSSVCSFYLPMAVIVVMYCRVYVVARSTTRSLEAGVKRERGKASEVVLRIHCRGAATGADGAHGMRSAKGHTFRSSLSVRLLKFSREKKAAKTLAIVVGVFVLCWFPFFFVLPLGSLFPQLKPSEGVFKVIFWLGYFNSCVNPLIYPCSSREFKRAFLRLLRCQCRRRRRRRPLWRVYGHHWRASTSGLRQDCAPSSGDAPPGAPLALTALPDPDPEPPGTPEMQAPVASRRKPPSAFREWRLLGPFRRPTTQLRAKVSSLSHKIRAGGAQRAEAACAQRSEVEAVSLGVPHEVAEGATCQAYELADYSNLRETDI
5-hydroxytryptamine receptor 7 (Homo sapiens), sequence (P34969 whole entry): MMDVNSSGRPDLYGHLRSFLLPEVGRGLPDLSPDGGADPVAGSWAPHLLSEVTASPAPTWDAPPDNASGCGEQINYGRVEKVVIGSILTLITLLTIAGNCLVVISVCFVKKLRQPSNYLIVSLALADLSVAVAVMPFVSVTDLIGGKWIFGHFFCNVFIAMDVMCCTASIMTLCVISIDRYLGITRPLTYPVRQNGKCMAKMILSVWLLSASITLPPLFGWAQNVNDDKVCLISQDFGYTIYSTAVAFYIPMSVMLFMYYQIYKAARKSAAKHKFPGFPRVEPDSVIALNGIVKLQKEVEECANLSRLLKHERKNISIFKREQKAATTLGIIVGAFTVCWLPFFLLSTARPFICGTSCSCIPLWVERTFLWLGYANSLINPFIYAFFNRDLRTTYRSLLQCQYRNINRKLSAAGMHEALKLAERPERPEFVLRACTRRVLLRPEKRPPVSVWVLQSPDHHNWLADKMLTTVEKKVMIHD
Kappa-type opioid receptor (Homo sapiens), sequence (P41145 whole entry): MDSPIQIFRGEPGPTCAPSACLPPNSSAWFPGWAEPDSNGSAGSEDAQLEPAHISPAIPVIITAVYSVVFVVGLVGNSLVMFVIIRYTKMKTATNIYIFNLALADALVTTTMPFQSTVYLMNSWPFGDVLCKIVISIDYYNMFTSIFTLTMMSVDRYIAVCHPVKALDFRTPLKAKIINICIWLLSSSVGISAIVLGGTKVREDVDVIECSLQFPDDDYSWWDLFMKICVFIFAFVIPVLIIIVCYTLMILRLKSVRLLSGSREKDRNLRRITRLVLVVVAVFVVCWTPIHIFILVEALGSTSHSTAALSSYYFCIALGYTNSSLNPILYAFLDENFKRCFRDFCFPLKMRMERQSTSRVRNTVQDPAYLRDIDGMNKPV
Adenosine receptor A1 (Homo sapiens), sequence (P30542 whole entry): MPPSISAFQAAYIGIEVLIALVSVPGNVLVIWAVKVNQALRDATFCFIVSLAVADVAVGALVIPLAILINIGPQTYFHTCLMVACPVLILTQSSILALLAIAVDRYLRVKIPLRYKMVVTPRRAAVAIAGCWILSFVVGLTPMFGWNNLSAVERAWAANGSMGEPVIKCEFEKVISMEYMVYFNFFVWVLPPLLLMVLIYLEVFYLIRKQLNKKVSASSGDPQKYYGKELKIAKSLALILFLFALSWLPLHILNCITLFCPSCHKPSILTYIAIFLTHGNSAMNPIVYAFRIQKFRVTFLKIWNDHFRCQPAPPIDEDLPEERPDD
Translocator protein (Rattus norvegicus), sequence (P16257 whole entry, looked up): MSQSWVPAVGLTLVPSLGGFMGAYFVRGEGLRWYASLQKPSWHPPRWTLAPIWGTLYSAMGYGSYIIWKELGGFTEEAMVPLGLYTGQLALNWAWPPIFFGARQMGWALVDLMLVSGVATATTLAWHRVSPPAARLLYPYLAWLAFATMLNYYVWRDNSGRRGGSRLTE
5-hydroxytryptamine receptor 2A (Homo sapiens), sequence (P28223 whole entry): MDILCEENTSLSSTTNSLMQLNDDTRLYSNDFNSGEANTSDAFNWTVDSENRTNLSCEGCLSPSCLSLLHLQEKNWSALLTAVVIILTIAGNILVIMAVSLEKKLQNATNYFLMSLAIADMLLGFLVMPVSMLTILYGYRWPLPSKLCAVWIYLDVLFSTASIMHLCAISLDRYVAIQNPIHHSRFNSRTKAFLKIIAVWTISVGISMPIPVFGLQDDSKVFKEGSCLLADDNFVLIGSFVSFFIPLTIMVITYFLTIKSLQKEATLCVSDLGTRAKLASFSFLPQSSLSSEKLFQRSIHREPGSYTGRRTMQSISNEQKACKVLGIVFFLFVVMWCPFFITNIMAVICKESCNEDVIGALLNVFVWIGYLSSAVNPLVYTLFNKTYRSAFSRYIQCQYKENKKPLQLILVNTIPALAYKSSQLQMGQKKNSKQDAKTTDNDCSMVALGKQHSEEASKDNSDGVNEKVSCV
Beta-2 adrenergic receptor (Homo sapiens), sequence (P07550 whole entry, looked up): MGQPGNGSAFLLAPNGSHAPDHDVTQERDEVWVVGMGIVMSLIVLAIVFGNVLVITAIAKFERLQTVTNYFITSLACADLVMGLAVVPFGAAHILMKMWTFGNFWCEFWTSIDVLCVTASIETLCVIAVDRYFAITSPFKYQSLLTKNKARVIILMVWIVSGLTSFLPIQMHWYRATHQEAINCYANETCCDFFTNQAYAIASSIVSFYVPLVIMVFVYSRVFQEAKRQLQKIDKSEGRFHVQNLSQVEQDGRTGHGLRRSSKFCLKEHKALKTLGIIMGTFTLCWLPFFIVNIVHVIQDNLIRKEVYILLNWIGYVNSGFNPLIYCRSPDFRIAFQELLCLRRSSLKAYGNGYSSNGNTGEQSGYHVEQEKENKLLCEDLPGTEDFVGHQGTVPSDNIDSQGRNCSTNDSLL
5-hydroxytryptamine receptor 1B (Homo sapiens), sequence (P28222 whole entry): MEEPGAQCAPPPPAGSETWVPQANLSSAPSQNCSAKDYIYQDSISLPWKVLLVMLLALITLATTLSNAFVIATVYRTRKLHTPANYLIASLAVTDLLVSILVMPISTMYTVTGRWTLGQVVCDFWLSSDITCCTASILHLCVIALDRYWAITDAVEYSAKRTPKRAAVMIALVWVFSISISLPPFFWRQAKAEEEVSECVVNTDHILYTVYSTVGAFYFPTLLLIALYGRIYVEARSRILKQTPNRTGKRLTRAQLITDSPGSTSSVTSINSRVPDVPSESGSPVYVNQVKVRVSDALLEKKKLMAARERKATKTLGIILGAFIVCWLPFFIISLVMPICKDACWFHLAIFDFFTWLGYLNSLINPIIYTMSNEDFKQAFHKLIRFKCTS
Pituitary adenylate cyclase-activating polypeptide type I receptor (Homo sapiens), sequence (P41586 21-468 limits assumed): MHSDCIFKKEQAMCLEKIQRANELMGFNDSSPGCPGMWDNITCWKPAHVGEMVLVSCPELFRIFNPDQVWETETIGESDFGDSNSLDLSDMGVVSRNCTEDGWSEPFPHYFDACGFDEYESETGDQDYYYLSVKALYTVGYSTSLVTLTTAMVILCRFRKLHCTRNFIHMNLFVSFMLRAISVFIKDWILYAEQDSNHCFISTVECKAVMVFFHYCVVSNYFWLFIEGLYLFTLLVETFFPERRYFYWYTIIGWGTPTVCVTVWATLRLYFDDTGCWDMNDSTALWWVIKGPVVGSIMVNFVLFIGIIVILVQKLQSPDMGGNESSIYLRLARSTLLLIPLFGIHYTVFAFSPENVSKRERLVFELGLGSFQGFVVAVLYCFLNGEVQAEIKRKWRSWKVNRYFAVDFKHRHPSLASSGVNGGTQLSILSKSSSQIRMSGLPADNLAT
Mu-type opioid receptor (Homo sapiens), sequence (P35372 whole entry): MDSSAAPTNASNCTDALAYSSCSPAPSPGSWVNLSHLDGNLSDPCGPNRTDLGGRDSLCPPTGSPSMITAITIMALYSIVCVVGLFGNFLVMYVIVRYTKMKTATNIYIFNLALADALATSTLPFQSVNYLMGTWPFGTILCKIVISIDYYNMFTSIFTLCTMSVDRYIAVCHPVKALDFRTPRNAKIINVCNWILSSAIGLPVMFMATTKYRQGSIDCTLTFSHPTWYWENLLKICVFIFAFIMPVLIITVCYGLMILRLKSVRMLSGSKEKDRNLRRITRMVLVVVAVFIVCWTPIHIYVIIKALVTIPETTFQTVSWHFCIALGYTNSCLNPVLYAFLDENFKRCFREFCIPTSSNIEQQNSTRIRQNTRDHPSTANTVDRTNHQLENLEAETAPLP

As for `Cn1cncc1[C@](O)(COc1ccc(C#N)cc1-c1ccc(OC(F)(F)F)cc1)c1ccc(C#N)cc1` [ABT-100], the inhibition (usually the relative decrease from the control value, in per cent) in [1] was 22%; in test [2] it was -8.65%; in [3], 36%; in test [4] it was < 10%; in [5] (Compound concentration 3.0 uM), 28%; in [5] (Compound concentration 10.0 uM), 67%. Also, the inhibition in test [6] was < 10%; in test [8] it was < 10%; in test [9], 15%; in test [10] it was < 10%; in test [11], 36%; in test [12] it was 18%. For the same compound, the inhibition in test [13] (Compound concentration 0.3 uM) was 14%; in [13] (Compound concentration 1.0 uM), 75%; in [13] (Compound concentration 3.0 uM) it was 97%; in [13] (Compound concentration 10.0 uM), 100%; in [14] it was 18%; in test [15], < 10%. The inhibition is 10% in test [16] and < 10% in test [17]. Moreover, the EC50 (as a rule, the concentration needed to bring the measured effect to its halfway point) in test [7] is 0.73 nM (active).

The values above are taken from ChEMBL document CHEMBL4507257, “Data for DCP probe ABT-100” (2021).
